Values joined by “and” are separate entries in the source; they are usually repeats but may differ in a detail not shown here. Identical values can stand only once. Numbers after ± are expanded uncertainties.
Settings: Crystal, Calculated from knudsen effusion weight loss

CCn1c(-c2ccccc2)cc2ccccc21 [1-ethyl-2-phenylindole]
Settings	vapor or sublimation pressure
327.18 K	7.2e-05 ± 6e-05 kPa and 6.9e-05 ± 6e-05 kPa and 7.1e-05 ± 6e-05 kPa
329.18 K	9.5e-05 ± 6e-05 kPa and 9.1e-05 ± 6e-05 kPa and 8.9e-05 ± 6e-05 kPa
331.09 K	0.000115 ± 6e-05 kPa and 0.000114 ± 6e-05 kPa and 0.000119 ± 6e-05 kPa
333.18 K	0.000144 ± 6e-05 kPa and 0.000143 ± 6e-05 kPa and 0.000145 ± 6e-05 kPa
335.18 K	0.00019 ± 6e-05 kPa and 0.000184 ± 6e-05 kPa and 0.000192 ± 6e-05 kPa
337.19 K	0.000239 ± 6.1e-05 kPa and 0.00024 ± 6.1e-05 kPa
339.17 K	0.000291 ± 6.1e-05 kPa and 0.000287 ± 6.1e-05 kPa and 0.000307 ± 6.1e-05 kPa
341.17 K	0.000379 ± 6.1e-05 kPa and 0.000368 ± 6.1e-05 kPa and 0.000387 ± 6.2e-05 kPa
343.08 K	0.000472 ± 6.2e-05 kPa and 0.000478 ± 6.2e-05 kPa
345.16 K	0.000624 ± 6.4e-05 kPa and 0.000605 ± 6.4e-05 kPa and 0.000625 ± 6.4e-05 kPa
347.08 K	0.000779 ± 6.6e-05 kPa and 0.000766 ± 6.6e-05 kPa and 0.000775 ± 6.6e-05 kPa
349.08 K	0.000974 ± 6.9e-05 kPa and 0.000987 ± 6.9e-05 kPa and 0.000986 ± 6.9e-05 kPa

c1ccc(-c2cc3ccccc3[nH]2)cc1 [2-phenyl-1H-indole]
Settings	vapor or sublimation pressure
360.16 K	0.000122 ± 6e-05 kPa and 0.000119 ± 6e-05 kPa and 0.000116 ± 6e-05 kPa
362.11 K	0.000157 ± 6e-05 kPa and 0.000149 ± 6e-05 kPa and 0.000155 ± 6e-05 kPa
364.08 K	0.000184 ± 6e-05 kPa and 0.000182 ± 6e-05 kPa and 0.000176 ± 6e-05 kPa
366.16 K	0.000217 ± 6e-05 kPa and 0.000214 ± 6e-05 kPa and 0.000227 ± 6.1e-05 kPa
368.13 K	0.00027 ± 6.1e-05 kPa and 0.000262 ± 6.1e-05 kPa and 0.000278 ± 6.1e-05 kPa
370.1 K	0.000331 ± 6.1e-05 kPa and 0.000325 ± 6.1e-05 kPa and 0.000324 ± 6.1e-05 kPa
372.16 K	0.000392 ± 6.2e-05 kPa and 0.000393 ± 6.2e-05 kPa and 0.000412 ± 6.2e-05 kPa
374.12 K	0.000491 ± 6.2e-05 kPa and 0.000456 ± 6.2e-05 kPa and 0.0005 ± 6.3e-05 kPa
376.1 K	0.00059 ± 6.4e-05 kPa and 0.000574 ± 6.3e-05 kPa and 0.000592 ± 6.4e-05 kPa
378.15 K	0.000701 ± 6.5e-05 kPa and 0.000693 ± 6.5e-05 kPa and 0.000735 ± 6.5e-05 kPa
380.12 K	0.000868 ± 6.7e-05 kPa and 0.000885 ± 6.8e-05 kPa and 0.000832 ± 6.7e-05 kPa
382.1 K	0.001023 ± 9.4e-05 kPa and 0.001052 ± 9.6e-05 kPa and 0.001046 ± 9.6e-05 kPa

Cn1c(-c2ccccc2)cc2ccccc21 [1-methyl-2-phenylindole]
Settings	vapor or sublimation pressure
331.17 K	7.4e-05 ± 6e-05 kPa and 7.7e-05 ± 6e-05 kPa
333.17 K	0.000104 ± 6e-05 kPa and 0.000102 ± 6e-05 kPa and 9.9e-05 ± 6e-05 kPa
335.1 K	0.00013 ± 6e-05 kPa and 0.000126 ± 6e-05 kPa and 0.000128 ± 6e-05 kPa
337.18 K	0.000157 ± 6e-05 kPa and 0.000154 ± 6e-05 kPa and 0.000158 ± 6e-05 kPa
339.21 K	0.000204 ± 6e-05 kPa and 0.000197 ± 6e-05 kPa and 0.000214 ± 6e-05 kPa
341.12 K	0.000252 ± 6.1e-05 kPa and 0.000254 ± 6.1e-05 kPa and 0.000251 ± 6.1e-05 kPa
343.17 K	0.000316 ± 6.1e-05 kPa and 0.000308 ± 6.1e-05 kPa and 0.000323 ± 6.1e-05 kPa
345.14 K	0.000404 ± 6.2e-05 kPa and 0.00039 ± 6.2e-05 kPa and 0.000414 ± 6.2e-05 kPa
347.08 K	0.000497 ± 6.3e-05 kPa and 0.000501 ± 6.3e-05 kPa and 0.000494 ± 6.3e-05 kPa
349.17 K	0.000593 ± 6.4e-05 kPa and 0.000586 ± 6.3e-05 kPa and 0.000585 ± 6.3e-05 kPa
351.21 K	0.000772 ± 6.6e-05 kPa and 0.000745 ± 6.6e-05 kPa
353.12 K	0.00092 ± 6.8e-05 kPa and 0.000943 ± 6.9e-05 kPa and 0.000939 ± 6.9e-05 kPa

Source: the NIST ThermoML archive (doi:10.1016/j.jct.2015.01.012)
